Test results: patent US9315465B2, “Photostable AIE luminogens for specific mitochondrial imaging and its method of manufacturing thereof” (THE HONG KONG UNIVERSITY OF SCIENCE AND TECHNOLOGY, priority 2013, dated 2016)

What was measured:
[1] = system: mitochondria; experiment: Effect of CCCP on mitochondria (pH, ΔΨm, morphology); assay type: cell-based
Description: Excitation wavelength: 405 nm; emission filter: 449-520 nm; irradiation time: 15.49 sec/scan.
(§1) To test the tolerance of TPE-TPP and MT to the change of mitochondrial ΔΨm, carbonyl cyanide m-chlorophenylhydrazone (CCCP) was used to treat the cells prior to the staining procedure. CCCP is an uncoupler that causes rapid acidification of the mitochondria and dysfunction of ATP synthase resulting in the decrease of the mitochondrial ΔΨm. Upon treatment with 20 μM CCCP, the pH of mitochondria decreased about 0.7 and ΔΨm thus decreased around 40 mV according to the Nernst equation. […] Since the targeting of MT to mitochondria is driven by the huge ΔΨm, the decrease of ΔΨm, will affect the direction and accumulation of cationic MT to mitochondria. It was expected that similar phenomena would be observed for TPE-TPP as it shares a similar working principle.
The high tolerance of TPE-TPP to the decrease of ΔΨm enables the observation of change of mitochondrial morphology induced by CCCP. […] The early stage of apoptosis involves remodeling of mitochondrial cristae and the consequent occurrence of morphological change of mitochondria, which is considered as an irreversible process associated with the collapse of ΔΨm. TPE-TPP has excellent specificity to mitochondria with outstanding photostability and tolerance to microenvironment change, representing a potential candidate of tracking agent for apoptosis studies.

[2] = system: mitochondria of CCCP-treated HeLa cells; experiment: Tolerance of mitochondrial staining to decrease of mitochondrial ΔΨm (CCCP-treated cells); assay type: cell-based; details: HeLa cells treated with 10 μM CCCP prior to staining
Excerpt: Excitation wavelength: 540-580 nm (for MT) and 330-385 nm (for TPE-TPP).
as §1, with “Upon treatment with 20 μM CCCP, the pH of mitochondria decreased about 0.7 and ΔΨm thus decreased around 40 mV according to the Nernst equation.” left out

[3] = system: reactive oxygen species (ROS); experiment: ROS detection with H2DCFDA under UV irradiation; details: solution of TPE-IQ 10 μM and H2DCFDA 1 μM, intensity at 521 nm
Description: Concentration of TPE-IQ: 10 μM; concentration of H2DCFDA: 1 μM.
(§2) With UV irradiation, the morphology of mitochondria changed gradually, indicating the initiation of the cell apoptosis process. […] To understand the underlying mechanism of TPE-IQ induced cell apoptosis, reactive oxygen species (ROS) detection agent H2DCFDA was utilized. […] This means that TPE-IQ could be utilized as a sensitizer for ROS generation, to induce cell apoptosis. Considering the mitochondria targeting of the probe, TPE-IQ could be used as an apoptosis inducer while enabling observation of the morphology change of the mitochondria at the same time. Besides, the probe may be utilized in phototherapy for selectively killing specific cells, while allowing for the study of how cells communicate when one cell undergoes the apoptosis process.

[4] = system: HeLa cell; experiment: UV-irradiation induced mitochondrial morphology change / apoptosis in stained cells; assay type: cell-based; details: HeLa cell stained with TPE-IQ, UV 6 s then 15 min in the dark
Excerpt: (A) 1 s; (B) 2 s; (C) 6 s; (D) 11 s.
as §2

[5] = system: mitochondria of the living HeLa cells; experiment: Mitochondria staining and co-localization by fluorescence microscopy; assay type: cell-based
Description: TPE-TPP was then assessed for its ability to localize and stain mitochondria in living cells by fluorescence microscope. Cervical cancer HeLa cells were incubated with 5 μM TPE-TPP for 1 h and excess dyes were washed away by buffer solution.
Pearson's correlation coefficient (Rr; from +1 to −1), which indicates the degree of linear dependence between two variables, is used to quantify the overlapping of the staining region between TPE-TPP and MT.
In FIG. 7A, cells were incubated with TPE-TPP for 1 h.
An AIE luminogen targeting mitochondria specifically with red fluorescence emission was also synthesized, i.e., TPE-MitoR, (E)-1-ethyl-3,3-dimethyl-2-(2-(4′(1,2,2-triphenylvinyl)-[1,1′-biphenyl]-4-yl)vinyl)-3H-indol-1-ium hexafluorophosphate. […] TPE-MitoR's ability for tracking mitochondria is evaluated by colocalizing with TPE-TPP (FIG. 14).
In addition, cell fixation is important for sample preserving.

[6] = system: HeLa cells; experiment: Cytotoxicity by MTT assay; assay type: cell-based; details: added to the culture medium
Description: Applying an organelle tracker into living sample, the cytotoxicity of the probe, TPE-TPP, was evaluated using the 3-(4,5-dimethyl-2-thiazolyl)-2,5-diphenyltetrazolium bromide (MTT) assay (FIG. 6).

[7] = Particle size analysis of nanoaggregates; assay type: physicochemical; details: aqueous solution containing 0.1% DMSO, identical condition for cell staining
Excerpt: The DMF solution of TPE-TPP was almost non-emissive while the solid state is strongly luminescent at 466 nm. […] The scheme of synthesis of said TPP-functionalized TPE is as follow: […]

[8] = Excerpt: The TPE core was synthesized simply from a McMurry coupling reaction. TPP was attached through bromination and subsequent reaction with triphenylphosphine.

For `N#CC(C#N)=NNc1cccc(Cl)c1` [CCCP, carbonyl cyanide m-chlorophenylhydrazone], the “decrease of pH of mitochondria” value ([1]; 20 μM CCCP) was “about 0.7”, the “decrease of ΔΨm” value ([1]; 20 μM CCCP, according to the Nernst equation) was “around 40 mV” and the “change of mitochondrial morphology” value ([1]; living HeLa cells exposed to CCCP (20 μM), stained with TPE-TPP) was “gradually transformed to small and dispersed fragments”.
For `CN1C(=CC=Cc2n(Cc3ccc(CCl)cc3)c3cc(Cl)c(Cl)cc3[n+]2Cc2ccc(CCl)cc2)C(C)(C)c2ccccc21.[Cl-]` [MT], the “specificity and sensitivity to mitochondria in CCCP-treated cells” value [2] was “no more specificity to mitochondria and the sensitivity became worse”.
With `CCC[n+]1cc2ccc(C(=C(c3ccccc3)c3ccccc3)c3ccccc3)cc2c(-c2ccccc2)c1-c1ccccc1` [TPE-IQ, 3,4-diphenyl-2-propyl-6-(1,2,2-triphenylvinyl)isoquinolin-2-ium tetrafluoroborate] the “H2DCFDA fluorescence (ROS production) with continuous UV irradiation” value [3] was “increased gradually”, the “mitochondrial morphology after UV irradiation” value [4] was “changed substantially” and the “mitochondria targeting in fixed cells” value ([5]; HeLa cells after 4% paraformaldehyde (PFA) fixation for 50 min) was “could still target to the mitochondria”. The “incubation time sufficient for lighting up the mitochondria” value ([5]; HeLa cells, 200 nM) was 10 min and the “emission from the mitochondria of the cells” value ([5]; HeLa cells, 500 nM, 1 min incubation) was “strong emission”.
In the case of `CC[N+]1=C(/C=C/c2ccc(-c3ccc(C(=C(c4ccccc4)c4ccccc4)c4ccccc4)cc3)cc2)C(C)(C)c2ccccc21` [TPE-MitoR, (E)-1-ethyl-3,3-dimethyl-2-(2-(4′(1,2,2-triphenylvinyl)-[1,1′-biphenyl]-4-yl)vinyl)-3H-indol-1-ium hexafluorophosphate], the “ability for tracking mitochondria (colocalization with TPE-TPP)” value ([5]; HeLa cells, 5 μM, 30 min) is reported as “promising result in locating mitochondria”.
In the case of `[Br-].[Br-].c1ccc(C(=C(c2ccccc2)c2ccc(C[P+](c3ccccc3)(c3ccccc3)c3ccccc3)cc2)c2ccc(C[P+](c3ccccc3)(c3ccccc3)c3ccccc3)cc2)cc1` [TPE-TPP, Bis(Triphenylphosphonium) Tetraphenylethene], the “concentration up to which cell viability is not significantly altered” value [6] is reported as “up to 7.5 μM”, the “specificity and sensitivity to mitochondria in CCCP-treated cells” value [2] is reported as “perfectly retained” and the average particle size [7] is reported as 144 nm. The “solubility in aqueous solution” value ([8]; aqueous solution) was “relatively poor solubility”, the “solubility in polar solvents” value ([8]; polar solvents such as DMF and DMSO) was “completely soluble” and the “localization of staining in living cells” value ([5]; HeLa cells, 5 μM, 1 h) was “stains specifically the mitochondrial region”. The “staining time sufficient to enter and light up mitochondria” value ([5]; HeLa cells, data not shown) was 15 min and the “Pearson's correlation coefficient (Rr) of overlap with MitoTracker Red FM (MT)” value ([5]; co-staining in living HeLa cells, TPE-TPP 5 μM, MT 50 nM) was 0.96.
